Assay type in all cases: in vivo
Experiment [1] concerns human colorectal cancer HCT-15. In words: Human tumor xenograft in nude mice, tumor inhibition rate, HCT-15. The settings on record: HCT-15 xenograft. Here is the method:
(§1) 1) Number of animals: there are 6 nude mice for each experimental group and positive control group; weighing: 20-21 g.
(§2) 2) Dosage and regimen of administration: the dose is described in the portion of the experimental results. The injection volume is 0.2 ml/mouse.
(§3) 3) Control groups: the negative control is the corresponding vehicle. The positive control is taxol which is a widely clinically used antitumor drug.
(§4) Under aseptic conditions, a tumor source with vigorous growth was taken to prepare a cell suspension of about 1-3×10^7/ml by a homogenization method. The suspension was injected subcutaneously into subaxillary region of nude mice at 0.2 ml/mouse. The drug was administered upon the tumor touchable. The drug was administered according to the regime. The animals in each group were sacrificed after the administration of three to four weeks. The tumors were taken and weighed, and the tumor inhibition rate was calculated according to the following formula: Tumor inhibition rate %=[(average tumor weight of the negative control group−average tumor weight of the compound administered group)/average tumor weight of the negative control group)×100%

The test system of experiment [2] is human liver cancer Hep-G2. Put plainly: Human tumor xenograft in nude mice, tumor inhibition rate, Hep-G2. The protocol:
as §1, §2, §3, §4

In the next experiment the test system is human lung cancer A549. Put plainly: Human tumor xenograft in nude mice, tumor inhibition rate, A549. The settings on record: alone at 50 mg/kg/d, iv×3, q3d.
Experiment [3] relates to human prostate cancer PC-3. Put plainly: Human tumor xenograft in nude mice, tumor inhibition rate, PC-3. The settings on record: PC-3 xenograft, 10 mg/kg/time, iv×7qd. Here is the method: 1) Number of animals: there are 6 nude mice for each experimental group and positive control group; weighing: 20-21 g. The negative control has two groups.
as §2, §3, §4

The compound `O=c1[nH]cc(F)c(=O)[nH]1` [5 Fu, 5-fluorouracil] returned a tumor inhibition rate in experiment [1] (alone at 15 mg/kg/d, iv×7, qd) of 42.71%.

In the case of `N.N.[Cl][Pt][Cl]` [DDP, Cisplatin], the tumor inhibition rate in experiment [2] (alone at 1 mg/kg/d, iv×7, qd) is listed as 45.33%.

For the compound `Nc1ccn([C@@H]2O[C@H](CO)[C@@H](O)C2(F)F)c(=O)n1` [Gemcitabine], the tumor inhibition rate with human lung cancer A549 is given as 39.23%.

On to `CC(=O)O[C@H]1C(=O)[C@@]2(C)[C@H]([C@H](OC(=O)c3ccccc3)[C@]3(O)C[C@H](OC(=O)[C@H](O)[C@@H](NC(=O)c4ccccc4)c4ccccc4)C(C)=C1C3(C)C)[C@]1(OC(C)=O)CO[C@@H]1C[C@@H]2O` [taxol], for which the tumor inhibition rate in experiment [2] (10 mg/kg/time, iv×7qd) amounted to 52.2%; in experiment [1] (10 mg/kg/time, iv×7qd), 52.2%; in experiment [3], 41.31%.

The values above are taken from patent publication US10980782B2.
